# From PubChem BioAssay (NCI)
#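 All cell lines were grown in 96-well plates and treated with compound for 48 hours. Here, GI50 denotes the concentration required for 50% inhibition of growth. Definition used: TGI = concentration required for complete inhibition of growth.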
# Legend:
# Test in all cases: NCI tumour cell line growth inhibition, 48 h
# 786-0 renal = tested on: 786-0 renal
# MDA-MB-231 breast = tested on: MDA-MB-231 breast
# HCT-15 colon = tested on: HCT-15 colon
# KM12 colon = tested on: KM12 colon
# DU-145 prostate = tested on: DU-145 prostate
# CCRF-CEM leukemia = tested on: CCRF-CEM leukemia
# OVCAR-3 ovarian = tested on: OVCAR-3 ovarian
# UACC-257 melanoma = tested on: UACC-257 melanoma
# SNB-75 CNS = tested on: SNB-75 CNS
# MCF7 breast = tested on: MCF7 breast
Compound,GI50 (786-0 renal) [µM],TGI (786-0 renal) [µM],GI50 (MDA-MB-231 breast) [µM],TGI (MDA-MB-231 breast) [µM],GI50 (HCT-15 colon) [µM],TGI (HCT-15 colon) [µM],GI50 (KM12 colon) [µM],TGI (KM12 colon) [µM],GI50 (DU-145 prostate) [µM],TGI (DU-145 prostate) [µM],GI50 (CCRF-CEM leukemia) [µM],TGI (CCRF-CEM leukemia) [µM],GI50 (OVCAR-3 ovarian) [µM],TGI (OVCAR-3 ovarian) [µM],GI50 (UACC-257 melanoma) [µM],TGI (UACC-257 melanoma) [µM],GI50 (SNB-75 CNS) [µM],TGI (SNB-75 CNS) [µM],GI50 (MCF7 breast) [µM],TGI (MCF7 breast) [µM]
O=C1OC(=O)C(c2c[nH]c3ccccc23)=C1c1c[nH]c2ccccc12,> 25,> 25,14.5,> 25,> 25,> 25,> 25,> 25,> 25,> 25,> 25,> 25,> 25,> 25,> 25,> 25,> 25,> 25,> 25,> 25
COC(=O)/C=C/C=C(c1ccccc1)c1ccccc1,4.32,58.5,11.1,36,3.79,42.1,3.67,27.4,5.48,52.8,6.48,> 100,2.4,8.24,8.82,> 100,2.72,53.1,4.08,> 100
CNC(=O)OCc1nc(SC2CCCCO2)n(C)c1COC(=O)NC (configuration not stated),–,> 100,–,–,–,> 100,–,> 100,–,–,–,> 100,–,> 100,–,> 100,–,> 100,–,> 100
CCCN=Cc1cc(Cc2ccc(O)c(C=NCCC)c2)ccc1O,–,32.1,–,33.5,–,12.3,–,22,–,31.1,–,–,–,14.4,–,60.8,–,9.67,–,6.87
Nc1cc2cccc[n+]2c2cc(Cl)ccc12,8.16,–,17.7,51,–,–,7.89,53.2,30.7,–,3.23,35.3,–,–,3.75,20.2,21.5,62.7,17.9,63
NC(=S)N/N=C(/CC(=O)c1ccccc1)C(=O)Nc1ccc(Cl)c(Cl)c1,–,> 100,–,–,–,> 100,–,> 100,–,–,–,91.6,–,> 100,–,> 100,–,> 100,–,–
Cc1[c-]onc1C.Cc1[c-]onc1C.[Ag].[Ag].[NH-]S(=O)(=O)c1ccc(N=Nc2cc(N=Nc3ccc(S([NH-])(=O)=O)cc3)c3c(NC(=O)C(Cl)Cl)cccc3c2OC(=O)C(Cl)Cl)cc1,8.87,16.4,5.44,19.1,9.82,32.1,7.44,18.1,7.38,14.8,9.28,32.7,7.6,15.8,–,–,6.85,18.9,2.12,> 50
COc1ccccc1NC(=O)C1=C(C)NC(C)=C(C(=O)Nc2ccccc2OC)C1c1ccccc1F,–,> 100,–,–,–,> 100,–,> 100,–,–,–,> 100,–,> 100,–,> 100,–,62.4,–,–
COC(=O)CCC(NC(=S)N/N=C(\C)c1nccs1)C(=O)OC (configuration not stated),–,> 100,–,–,–,> 100,–,> 100,–,–,–,–,–,> 100,–,> 100,–,> 100,–,–
CCCc1[nH]nc(CCC(=O)N(Cc2ccccc2)Cc2ccccc2)c1CC,–,> 100,–,–,–,> 100,–,> 100,–,–,–,> 100,–,> 100,–,> 100,–,> 100,–,–
CC(C)C(=O)Nc1nc2nc[nH]c2c(=O)[nH]1,–,> 100,–,–,–,> 100,–,> 100,–,–,–,> 100,–,> 100,–,> 100,–,> 100,–,–
COC(=O)[C@@H](C)C[C@H](Cc1ccccc1)NC(=O)c1nc([C@@H](C[C@H](C(C)C)N(C)C(=O)[C@@H](NC(=O)[C@H]2CCCCN2C)C(C)C)OC(C)=O)sc1C,< 0.00167,> 16.7,< 0.00167,0.441,0.00536,> 16.7,< 0.00167,> 16.7,< 0.00167,> 16.7,< 0.00167,> 16.7,< 0.00167,–,–,–,< 0.00167,> 7.57,< 0.00167,> 16.7
O=C([O-])c1ccccc1Nc1ccccn1.O=C([O-])c1ccccc1Nc1ccccn1.[Ni+2],> 100,> 100,–,–,> 100,> 100,> 100,> 100,–,–,> 100,> 100,> 100,> 100,> 100,> 100,–,–,–,–
CNS(=O)(=O)NN(C)S(=O)(=O)c1ccc(F)cc1,–,> 100,–,–,–,> 100,–,> 100,–,–,–,> 100,–,> 100,–,> 100,–,> 100,–,–
CCCCCCCCCc1cc(=O)c2ccc(OCc3ccccc3)cc2o1,–,> 100,–,–,–,> 100,–,> 100,–,–,–,> 100,–,> 100,–,> 100,–,72.3,–,–
COCCN1C2=CCCCC2=Nc2c1nc(N)[nH]c2=O,–,> 100,–,–,–,> 100,–,> 100,–,–,–,> 100,–,> 100,–,> 100,–,> 100,–,–
Cc1ccncc1.[O]=[Ge].[O]=[Ge].[O]=[Ge].[O]=[Ge].[O]=[Ge].[O]=[Ge][OH].[O]=[Ge][OH],> 100,> 100,–,–,> 100,> 100,> 100,> 100,–,–,> 100,> 100,> 100,> 100,> 100,> 100,> 100,> 100,–,–
O=C(O)c1ccc([Se][Se]c2ccc(C(=O)O)cc2)cc1,–,> 100,–,–,–,> 100,–,68.4,–,–,–,–,–,42.9,–,–,–,88.3,–,–
Cc1occc1C(=S)Nc1ccc(Cl)c(COC(C)(C)C)c1,–,30.3,–,32,–,34.5,–,31.7,–,46.9,–,62.4,–,30,–,31.3,–,–,–,31.6
O=Cc1cn(C(=O)c2ccccc2)c2ccccc12,–,> 100,–,–,–,> 100,–,> 100,–,–,–,> 100,–,> 100,–,> 100,–,> 100,–,–
C=CCC1([C@H](C)[C@@H](OC(C)=O)c2cc(OC)c(OC)c(OC)c2)C[C@@H](OC)CCC1=O (some centres not stated),–,26.7,–,–,–,40.8,–,37,–,–,–,51.7,–,50.5,–,–,–,36,–,–
CC1CCCCc2nc3c(c(=O)n21)CCCC3 (configuration not stated),–,> 100,–,–,–,> 100,–,> 100,–,–,–,–,–,> 100,–,> 100,–,> 100,–,–

Compound,GI50 (786-0 renal) [µM],TGI (786-0 renal) [µM],GI50 (MDA-MB-231 breast) [µM],TGI (MDA-MB-231 breast) [µM],GI50 (HCT-15 colon) [µM],TGI (HCT-15 colon) [µM],GI50 (KM12 colon) [µM],TGI (KM12 colon) [µM],GI50 (DU-145 prostate) [µM],TGI (DU-145 prostate) [µM],GI50 (CCRF-CEM leukemia) [µM],TGI (CCRF-CEM leukemia) [µM],GI50 (OVCAR-3 ovarian) [µM],TGI (OVCAR-3 ovarian) [µM],GI50 (UACC-257 melanoma) [µM],TGI (UACC-257 melanoma) [µM],GI50 (SNB-75 CNS) [µM],TGI (SNB-75 CNS) [µM],GI50 (MCF7 breast) [µM],TGI (MCF7 breast) [µM]
CC(C)(C)OC(=O)C#CC[C@H]1CCCC1/C=C/C(O)=C1/C(=O)NC(CCCNC(=O)OC(C)(C)C)C1=O (some centres not stated),–,> 100,–,–,–,–,–,> 100,–,–,–,88.5,–,> 100,–,61.4,–,> 100,–,–
Nc1ccn(Cc2ccc(C34CC5CC(CC(C5)C3)C4)c(O)c2)c(=O)n1,47.7,> 100,> 100,> 100,> 100,> 100,> 100,> 100,> 100,> 100,–,–,58.9,> 100,–,–,24,84,91.5,> 100
CN(C)/C=C/c1nnc([N+](=O)[O-])s1,–,36.3,–,85.9,–,32.2,–,29.6,–,30.8,–,–,–,7.58,–,27.2,–,66.6,–,8.01
CCOC(=O)C1=C(C)N(Cc2ccccc2)C(C)=C(C(=O)OCC)C1c1ccccc1O,–,> 100,–,–,–,> 100,–,64.4,–,–,–,69.5,–,90.8,–,70.7,–,> 100,–,–
CC(=O)NC(CCCNCc1ccccc1)C(=O)NCc1ccccc1 (configuration not stated),–,> 100,–,–,–,> 100,–,> 100,–,–,–,> 100,–,> 100,–,> 100,–,> 100,–,–
Cc1cc(N(CCC#N)S(=O)(=O)c2ccccc2)ccc1/C=C1N=C(/C=C/c2ccccc2)OC\1=O,–,> 100,–,–,–,> 100,–,> 100,–,–,–,> 100,–,> 100,–,> 100,–,> 100,–,–
N#C/C(=C1\OC(=O)C(c2ccc(Br)cc2)=C1O)c1ccc(Br)cc1,–,27.9,–,–,–,–,–,28.5,–,–,–,51.1,–,28.2,–,29.5,–,32.4,–,–
COc1cccc(NC(=O)CC(=O)N2N=C(N(CCC#N)c3ccc(Cl)cc3)CC2c2ccccc2)c1 (configuration not stated),–,> 100,–,–,–,> 100,–,> 100,–,–,–,> 100,–,> 100,–,> 100,–,> 100,–,–
CCCCCCCCCCCCOC(=S)NCCCC,–,67.7,–,–,–,37.2,–,41.9,–,–,–,80.4,–,–,–,44,–,95.1,–,–
c1cc(-c2cn3ccsc3n2)ccn1,–,> 100,–,–,–,> 62,–,> 100,–,–,–,> 60.5,–,> 100,–,> 100,–,> 100,–,–
CC1=NCCc2c1[nH]c1cc(O)ccc21,–,> 100,–,–,–,> 100,–,> 100,–,–,–,> 100,–,> 100,–,> 100,–,> 100,–,–
COc1ccc(-c2ccc(/C=N/n3c(COc4ccc(Cl)cc4Cl)n[nH]c3=S)o2)c([N+](=O)[O-])c1,29,54.2,–,–,28.6,> 100,15.9,33,38.3,> 100,16.3,42,16.1,46.3,–,–,–,–,15.9,41.7
N#CC(C(=O)/C(=N/NC(=O)c1ccccc1O)C(C#N)c1ccc(Cl)cc1)c1ccc(Cl)cc1 (configuration not stated),–,29.9,–,–,–,37.7,–,30,–,–,–,> 100,–,35.5,–,27.7,–,–,–,–
CC(=O)NNc1nc(C)c(C(=O)NNC(=O)C(=O)Nc2ccccc2C#N)s1,–,> 100,–,–,–,> 100,–,> 100,–,–,–,> 100,–,> 100,–,> 100,–,> 100,–,–
C=C1C(=O)O[C@H]2[C@H]1[C@H](OC(=O)/C(C)=C\C)CC(=C)[C@@H]1[C@H](O)[C@H]3O[C@@]3(C)[C@@]12O,–,> 100,–,–,–,> 100,–,> 100,–,–,–,> 100,–,> 100,–,–,–,> 100,–,–
Cc1ccc(C(=O)O/N=C2/CCC/C2=C\c2ccccc2)cc1,–,> 100,–,–,–,> 100,–,> 100,–,–,–,> 100,–,> 100,–,> 100,–,> 100,–,–
CN(C(=O)C12C3C4C5C3C1(C(=O)O)C5C42)C(C)(C)C (configuration not stated),–,> 100,–,–,–,> 100,–,> 100,–,–,–,> 100,–,> 100,–,> 100,–,> 100,–,–
Cc1ccc(-c2c(N)[n+]([O-])c3ccccc3[n+]2[O-])cc1,–,28.6,–,–,–,15.3,–,26.7,–,–,–,> 100,–,30.3,–,23.5,–,26,–,–
COc1nc(NC2OCC(OC(C)=O)C(OC(C)=O)C2OC(C)=O)c(N=CC=Nc2c(NC3OCC(OC(C)=O)C(OC(C)=O)C3OC(C)=O)nc(OC)n(C)c2=O)c(=O)n1C (configuration not stated),–,> 100,–,–,–,> 100,–,> 100,–,–,–,–,–,> 100,–,> 100,–,> 100,–,–
COc1c2c(c3c(c1CCC(=O)O)OC(C)(C)C=C3)OC(C)(C)C=C2,–,> 100,–,> 100,–,> 100,–,> 100,–,> 100,–,–,–,> 100,–,> 100,–,> 100,–,> 100
Nc1c(C(=O)Nc2cccc([N+](=O)[O-])c2)sc2nc3c(cc12)C(O)CCC3 (configuration not stated),13.5,> 100,21.3,> 100,2.82,> 100,3.5,> 100,20.5,> 100,–,–,4.53,> 100,> 29.8,> 100,5.38,30.5,3.14,> 100
